The target of this assay is T1, human renin (Homo sapiens, UniProt P00797).
T1 construct: from tissue; host or cells: human plasma from blood of healthy volunteers
T1 sequence (P00797 67-406): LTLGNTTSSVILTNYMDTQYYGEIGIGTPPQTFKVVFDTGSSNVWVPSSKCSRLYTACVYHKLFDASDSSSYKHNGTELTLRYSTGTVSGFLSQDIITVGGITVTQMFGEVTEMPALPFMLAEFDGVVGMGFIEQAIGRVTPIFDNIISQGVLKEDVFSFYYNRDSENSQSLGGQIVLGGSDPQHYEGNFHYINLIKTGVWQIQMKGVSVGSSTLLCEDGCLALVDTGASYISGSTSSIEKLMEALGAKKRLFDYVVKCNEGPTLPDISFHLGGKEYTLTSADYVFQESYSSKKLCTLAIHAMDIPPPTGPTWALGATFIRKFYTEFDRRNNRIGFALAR
The assay is described as follows: In vitro human renin inhibition (renin activity in human plasma, angiotensin I radioimmunoassay). It counts as biochemical. To be noted: angiotensin I difference between halves incubated at 37° and 4° for 2 h, linear regression of at least three concentrations, read-out: IC₅₀. The procedure:
In vitro human renin inhibition
Renin inhibitory activity was estimated as the percentage change in renin activity in human plasma in the presence and absence of compound. The source of plasma was blood taken from healthy volunteers. Renin activity was defined by the difference in angiotensin I levels between two halves of a sample, one incubated at 37^o and the other at 4^o for 2 h. Angiotensin I levels were measured using a ¹²⁵I- angiotensin I radioimmunoassay kit (NEN/DuPont, Stevenage). Results were calculated as the mean of at least two, duplicate determinations and IC₅₀ values were calculated by linear regression analysis of at least three concentrations of compound.
On to `CC(C)CNC(=O)C[C@H](O)[C@H](CC1CCCCC1)NC(=O)[C@H](CC(C)C)NC(=O)[C@H](Cc1ccccc1)NC(=O)CC1CCOc2ccccc21` (stereo partly drawn) [Example E1, Chromanyl-4-acetyl-Phe-Leu-ACHPA isobutylamide .0.5H₂O], for which the IC50 is 47 nM. Then `Cc1ccc2c(c1)N(CC(=O)N[C@@H](Cc1ccccc1)C(=O)N[C@@H](CC(C)C)C(=O)N[C@@H](CC1CCCCC1)[C@@H](O)CC(=O)NCC(C)C)C(=O)CO2` [Example E2, 2,3-Dihydro-6-methyl-3-oxo-4H-1,4-benzoxazine-4-acetyl-Phe-Leu-ACHPA isobutylamide .H₂O], with 220 nM.

With `CC(C)CNC(=O)C[C@H](O)[C@H](CC1CCCCC1)NC(=O)[C@H](CC(C)C)NC(=O)[C@H](Cc1ccccc1)NC(=O)CCN1C(=O)CS(=O)(=O)c2ccccc21` [Example E7, 2,3-Dihydro-1,1,3-trioxo-4H-1,4-benzothiazine-4-propanoyl-Phe-Leu-ACHPA isobutylamide .0.5H₂O], the IC50 turned out to be 13 nM. `CC(C)C[C@H](NC(=O)[C@H](Cc1ccccc1)NC(=O)CCN1C(=O)COc2ccc(CN)cc21)C(=O)N[C@@H](CC1CCCCC1)[C@@H](O)CC(=O)NCCCn1ccnc1` [Example E11, 6-(Aminomethyl)-2,3-dihydro-3-oxo-4H-1,4-benzoxazine-4-propanoyl-Phe-Leu-ACHPA 3-(1imidazolyl)propylamide .3CF₃CO₂H]: the IC50 is 25 nM. As for `CC(C)C[C@H](NC(=O)[C@H](Cc1ccccc1)NC(=O)CCN1C(=O)COc2ccc(C(=O)O)cc21)C(=O)N[C@@H](CC1CCCCC1)[C@@H](O)CC(=O)NCCCn1ccnc1` [Example E15, 6-Carboxy-2,3-dihydro-3-oxo-4H-1,4-benzoxazine-4-propanoyl-Phe-Leu-ACHPA 3-(1-imidazolyl)propylamide], the IC50 worked out at 42 nM.

On to `CC(C)C[C@H](NC(=O)[C@H](Cc1ccccc1)NC(=O)CCN1C(=O)CCSc2ccccc21)C(=O)N[C@@H](CC1CCCCC1)[C@@H](O)CC(=O)NCCCn1ccnc1` [Example E18, 3,4-Dihydro-4-oxo-1,5-benzothiazepine-5(2H)-propanoyl-Phe-Leu-ACHPA 3-(1-imidazolyl)propylamide.0.5(CHCl₃)], for which the IC50 is 8 nM. `CC(C)C[C@H](NC(=O)[C@H](Cc1ccccc1)NC(=O)CCN1C(=O)CCS(=O)(=O)c2ccccc21)C(=O)N[C@@H](CC1CCCCC1)[C@@H](O)CC(=O)NCCCn1ccnc1` [Example E19, 3,4-Dihydro-1,1,4-trioxo-1,5-benzothiazepine-5(2H)-propanoyl-Phe-Leu-ACHPA 3-(1-imidazolyl)propylamide]: the IC50 is 22 nM.

These data come from patent publication EP0411751A1, “Renin inhibitory peptides” (Beecham Group p.l.c., priority 1989, dated 1991).
